Experimental data: US8658649B2, “Kinase inhibitor” (Sanofi, priority 2006, dated 2014)

Tested on: hematological malignant cell lines
Test: Viability assay (MTS), panel of hematological malignant cell lines
Format: cell-based
Experimental: This method is to determine the viability of a liquid tumor cell line following treatment with a test compound. Tumor cells are maintained in suspension at log phase growth. On the day of use, cells are resuspended to a density of 0.05 to 0.1 million/ml and cells are incubated in 96 well plate with the test compounds for 96 hours. Viability of cells was measured by incubating cells with Promega's MTS reagent. The viability of the cell is proportional to the change in absorbance at 490 nm. By comparing the absorbance between control and compound-treated cells, the impact of the test compounds on the cell viability is determined as a percent of the control cell viability.
Harvest cells in complete RPMI from log-phase cultures at densities of approximately 0.3-0.7 million/ml. Count cells and adjust to 0.1 million/ml in phenol red free cRPMI (For fast growing cells with doubling time of equal or less than 24 hours, e.g. K562, use 0.05 million/ml instead to avoid over-growing).
Transfer triplicates of 100 μl of cells to the wells of 96-well clear plates for a total of 10000 cells/well. Note that each well already contains 10 μl of 10× concentrated test compound prepared as above.
Incubate cells for 72-96 hours at 37° C. in a tissue culture incubator containing 5% CO2.
1. […]
4. Incubate at 370 C until the absorbance at 490 nm for the control cells is >1.5. […]

In the case of `CCc1c(-c2ccc(C(C)(C)O)cc2)[nH]c2nccnc12` [compound of Formula I, 2-[4-(7-Ethyl-5H-pyrrolo[2,3-b]pyrazin-6-yl)-phenyl]-propan-2-ol], the “anti-proliferation activity in the two MCL cell lines” value (Jeko-1 and Granta-519) is reported as “consistently active” and the “hematological malignant cell lines against which the compound is inhibitory” value (MTS assay, panel of Table 4) is reported as 6 out of 15.
